Source: paper PMC3934850 (Biochimica et biophysica acta, 2014)

Molecular target: myoglobin (carbonmonoxy myoglobin, MbCO) (Equus caballus, UniProt P68082)
Test: 1H NMR titration
Type: binding

myoglobin (carbonmonoxy myoglobin, MbCO), sequence (P68082 2-154): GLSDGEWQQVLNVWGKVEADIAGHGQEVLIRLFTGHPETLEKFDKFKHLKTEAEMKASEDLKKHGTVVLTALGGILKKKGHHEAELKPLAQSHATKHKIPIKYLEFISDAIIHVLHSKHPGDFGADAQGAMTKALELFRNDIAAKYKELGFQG

- Kd: 39 to 48 µM
SMILES: CCCCCCCCCCCCCCCC(=O)O [PA, palmitate]
